Values of other authors in US6472398B1, “Spiropiperidine derivatives as melanocortin receptor agonists” (Merck & Co., Inc., priority 2000, dated 2002).

Assays:
[1] = test system: patients with erectile dysfunction; settings: for duration of effect / onset of action: after an oral dose; for share of patients with adequate response: oral, men with erectile dysfunction
[2] = test system: males with psychogenic erectile dysfunction
rodents = settings: ICV; NPY, ob/ob, agouti, fasted feeding models

Compound | duration of effect [1] | onset of action [1] [min] | share of patients with adequate response [1] | duration of action ([2]; in vivo) | time to onset of erection ([2]; in vivo) [min] | absorption into the systemic circulation ([2]; in vivo, po) | response rate ([2]; injected intramuscularly or subcutaneously) [%] | effect on food intake (rodents)
Cc1ccc(N(CC2=NCCN2)c2cccc(O)c2)cc1 [phentolamine] | 2 h | 5 to 30 | 35-40% |  |  |  |  | 
CCCc1nn(C)c2c(=O)[nH]c(-c3cc(S(=O)(=O)N4CCN(C)CC4)ccc3OCC)nc12 [sildenafil] | about 4 hours | 30 to 60 | about 70% |  |  |  |  | 
Ac-Nle-c[Asp-His-DPhe-Arg-Trp-Lys]-NH2 [MT-II] |  |  |  | approximately 2.5 hours | 10 to 20 | not absorbed into the systemic circulation | 75 | reduces food intake
SHU-9119 |  |  |  |  |  |  |  | reverses this effect and can induce hyperphagia
